Structures can show the parent of a compound that is named as a salt.

Sequence of c-MET (P08581 1078-1345 limits assumed): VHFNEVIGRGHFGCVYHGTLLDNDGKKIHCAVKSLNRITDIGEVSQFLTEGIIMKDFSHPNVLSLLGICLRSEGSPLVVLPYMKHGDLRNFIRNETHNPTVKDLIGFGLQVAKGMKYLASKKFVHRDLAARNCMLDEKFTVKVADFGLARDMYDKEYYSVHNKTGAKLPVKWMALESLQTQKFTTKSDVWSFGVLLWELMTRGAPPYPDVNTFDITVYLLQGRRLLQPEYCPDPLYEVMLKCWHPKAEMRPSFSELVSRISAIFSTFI

The assay addresses c-MET (Homo sapiens, UniProt P08581). The experiment in a line: MET luminescence-based enzyme assay (Kinase-Glo). The assay is classed as biochemical. As for the experimental part: The subscript designates positive or negative controls. The Z′ score for a robust screening assay should be ≧0.50. The typical threshold=μ+−3*σ+. Any value that falls below the threshold was designated a “hit”.
MET Luminescence-Based Enzyme Assay
MET kinase (see below), Kinase-Glo™ (Promega Cat#V6712).
Negative controls contained 10 μM staurosporine.
The IC50 is the midpoint of a concentration-inhibition curve. On to `CNc1ccc2nnc(Sc3ccc4nccc(Sc5nnc6ccc(NC)nn56)c4c3)n2n1` [Compound 48, 4,6-{6-Methylamino-[1,2,4]triazolo[4,3-b]pyridazin-3-ylsulfanyl}-quinoline], for which the IC50 is > 10 µM.
With `Cc1ccc2nnc(Sc3ccc4ncc(Br)cc4c3)n2n1` [Compound 43, 3-Bromo-6-(6-methyl-[1,2,4]triazolo[4,3-b]pyridazin-3-ylsulfanyl)-quinoline] the figure was 0.1 to 1 µM; with “Methyl-{3-[4-(4-methyl-4H-[1,2,4]triazol-3-ylsulfanyl)-quinolin-6-ylsulfanyl]-[1,2,4]triazolo[4,3-b]pyridazin-6-yl}-amine (A), Methyl-{3-[6-(4-methyl-4H-[1,2,4]triazol-3-ylsulfanyl)-quinolin-4-ylsulfanyl]-[1,2,4]triazolo[4,3-b]pyridazin-6-yl}-amine (B) [Compound 47]”, 1 to 10 µM; with `Cc1ccc2nnc(Sc3ccc4ncccc4c3)n2n1` [Compound 37, 6-(6-Methyl-[1,2,4]triazolo[4,3-b]pyridazin-3-ylsulfanyl)-quinoline], 0.1 to 1 µM.
`Cc1ccc2nnc(Sc3ccc4nccc(Sc5nncn5C)c4c3)n2n1` [Compound 57, 6-(6-Methyl-[1,2,4]triazolo[4,3-b]pyridazin-3-ylsulfanyl)-4-(4-methyl-4H-[1,2,4]triazol-3-ylsulfanyl)-quinoline]: the concentration for half-maximal inhibition (IC50) is > 10 µM.
With `Cn1cc(-c2ccc3nnc(Sc4ccc5nccc(NC(=O)OC(C)(C)C)c5c4)n3n2)cn1` [Compound 36, {6-[6-(1-Methyl-1H-pyrazol-4-yl)-[1,2,4]triazolo[4,3-b]pyridazin-3-ylsulfanyl]-quinolin-4-yl}-carbamic acid tert-butyl ester] the figure was 1 to 10 µM; with `CNc1ccnc2ccc(Sc3nnc4ccc(-c5cnn(C)c5)nn34)cc12` [Compound 28, Methyl-{6-[6-(1-methyl-1H-pyrazol-4-yl)-[1,2,4]triazolo[4,3-b]pyridazin-3-ylsulfanyl]-quinolin-4-yl}-amine], 1 to 10 µM.
In the case of `CNc1ccc2nnc(Sc3ccc4ncccc4c3-c3cnn(C)c3)n2n1` [Compound 49, Methyl-{3-[5-(1-methyl-1H-pyrazol-4-yl)-quinolin-6-ylsulfanyl]-[1,2,4]triazolo[4,3-b]pyridazin-6-yl}-amine] it was > 10 µM; in that of `CN(C)c1ccnc2ccc(Sc3nnc4ccc(-c5cnn(C)c5)nn34)cc12` [Compound 29, Dimethyl-{6-[6-(1-methyl-1H-pyrazol-4-yl)-[1,2,4]triazolo[4,3-b]pyridazin-3-ylsulfanyl]-quinolin-4-yl}-amine], 0.1 to 1 µM; in that of `Cn1cc(-c2ccc3nnc(Sc4ccc5c(ccc[n+]5[O-])c4)n3n2)cn1` [Compound 27, 6-[6-(1-Methyl-1H-pyrazol-4-yl)-[1,2,4]triazolo[4,3-b]pyridazin-3-ylsulfanyl]-quinoline, N-oxide], 1 to 10 µM.
Take `Cc1cnc2ccc(Sc3nnc4ccc(C)nn34)cc2c1` [Compound 54, 3-Methyl-6-(6-methyl-[1,2,4]triazolo[4,3-b]pyridazin-3-ylsulfanyl)-quinoline]: the IC50 is 0.1 to 1 µM.
In the case of `Cc1cc2cc(Sc3nnc4ccc(-c5cnn(C)c5)nn34)ccc2nc1N` [Compound 24, 3-Methyl-6-[6-(1-methyl-1H-pyrazol-4-yl)-[1,2,4]triazolo[4,3-b]pyridazin-3-ylsulfanyl]-quinolin-2-ylamine] it was 0.1 to 1 µM; in that of `Cn1cc(-c2ccc3nnc(Sc4ccc5nccc(N)c5c4)n3n2)cn1` [Compound 34, 6-[6-(1-Methyl-1H-pyrazol-4-yl)-[1,2,4]triazolo[4,3-b]pyridazin-3-ylsulfanyl]-quinolin-4-ylamine, trifluoroacetic acid salt], 0.1 to 1 µM.
In the case of `Cc1ccc2nnc(Sc3cc4cccnc4cc3F)n2n1` [Compound 51, 7-Fluoro-6-(6-methyl-[1,2,4]triazolo[4,3-b]pyridazin-3-ylsulfanyl)-quinoline] it was 0.1 to 1 µM.

Source of the values: patent US8507489B2, “Bicyclic triazoles as protein kinase modulators” (SGX Pharmaceuticals, Inc., priority 2006, dated 2013).
